Data reported in patent US20240271329A1, “CYCLIC COMPOUND LIBRARY AND CONSTRUCTION METHOD THEREFOR” (Yafei Shanghai Biology Medicine Science & Technology Co. …, priority 2021, published 2024).
Where two headings read alike, the source gives them in different places. Square brackets hold non-standard residues; d marks the D form. Peptide text beside a SMILES is read from it. * marks the point of attachment. ξ: configuration not given here. Phe(3-CF3) = N[C@@H](Cc1cccc(C(F)(F)F)c1)C(=O)O; NMeF = CN[C@@H](Cc1ccccc1)C(=O)O; 3Pal = N[C@@H](Cc1cccnc1)C(=O)O; Cha = N[C@@H](CC1CCCCC1)C(=O)O; Cit = NC(=O)NCCC[C@H](N)C(=O)O; NMeL = CN[C@@H](CC(C)C)C(=O)O; ξP = O=C(O)C1CCCN1; OtBu = CC(C)(C)O*; Sar = CNCC(=O)O

Test: MDCK monolayer membrane permeability (A→B transport)
Type: in vitro ADME, canine
Conditions: dog
Procedure: In order to determine the cyclic peptide compounds 9-12 obtained in the above examples, an MDCK model was established to determine their membrane permeability. The MDCK cell line was sourced from Madin Darby canine epithelial cell lines, and the monolayer MDCK cell was the best cytological model to study the in vivo processes such as absorption and reabsorption of drugs in renal tubules. The MDCK cells in a disperse culture flask were digested, and seeded to Millicell CPI at 5×10^4/cm^2; 400 μL of MEM culture solution containing 10% FBS was added to a side A (a luminal side, Apical), and 800 μL of the MEM culture solution was added to a side B (a basolateral side); and the mixture was incubated in an incubator containing 5% CO2 at 37° C. The solution was changed every day. It should be noted that a pipette should not to touch a cell membrane, thereby avoiding damaging the cell layer; and the transmembrane resistance (i.e., trans-epithelial electrical resistance, TEER) was regularly measured by using Millicell2ERS to test the integrity of the cell monolayer.
The A→B transport from the apical end (A) to the basolateral end (B) of the monolayer membrane of the MDCK cells was observed. For the determination of A→B, 450 μL of a drug or a positive control HEPES solution was added to the apical end of the membrane as a feeding cell, and 1300 μL of a blank HEPES solution was added to the basolateral end as a receiving cell. A Transwell plate was placed on a constant-temperature shaker at 37° C. and shaken; after 90 min, a sample solution was extracted respectively from the feeding cell and the receiving cell; acetonitrile was added to precipitate proteins, and then vortexing, centrifuging and transferring were carried out; and the permeance was measured by LC/MS. Based on this permeance, a membrane permeance coefficient (Papp, i.e., apparent permeability, which was a specific evaluation parameter) was calculated. The Papp greater than 1×10^−6 cm/s indicated the absorption of more than 60% of a drug, and the Papp greater than 10×10^−6 cm/s indicated the absorption of more than 80% of drug molecules.

[1] = MDCK A→B, not, read-out: Papp values
[2] = apical to basolateral, MDCK monolayer, 37° C., 90 min, LC/MS, read-out: MDCK Papp(A − B)

Row | Structure (SMILES) | Papp A→B at 90 min [1] | Papp A→B at 90 min [2]
1 | CC(C)C[C@@H]1NC(=O)CNC(=O)[C@H](CC(N)=O)NC(=O)C2CCCN2C(=O)[C@H]2CCCN2C(=O)[C@H](CCC(=O)OC(C)(C)C)NC(=O)CN(C)C(=O)[C@H](Cc2cccc(C(F)(F)F)c2)NC(=O)[C@H](CC(C)C)N(C)C(=O)[C@H](Cc2ccccc2)N(C)C1=O (stereo partly drawn) [Compound 9] (cyclo(E(OtBu)[dP][ξP]NGL[NMeF][NMeL][Phe(3-CF3)][Sar])) | > 10 ×10⁻⁶ cm/s | 11.3 ×10⁻⁶ cm/s
2 | CC(C)C[C@@H]1NC(=O)CNC(=O)[C@H](CC(N)=O)NC(=O)C2CCCN2C(=O)[C@H]2CCCN2C(=O)[C@H](CCC(=O)OC(C)(C)C)NC(=O)CN(C)C(=O)[C@H](Cc2cccnc2)NC(=O)[C@H](CC(C)C)N(C)C(=O)[C@H](Cc2ccccc2)N(C)C1=O (stereo partly drawn) [Compound 10] (cyclo([3Pal][Sar]E(OtBu)[dP][ξP]NGL[NMeF][NMeL])) | – | 4.8 ×10⁻⁶ cm/s
3 | CC(C)C[C@@H]1NC(=O)CNC(=O)[C@H](CC(N)=O)NC(=O)C2CCCN2C(=O)[C@H]2CCCN2C(=O)[C@H](CCC(=O)OC(C)(C)C)NC(=O)CN(C)C(=O)[C@H](CC2CCCCC2)NC(=O)[C@H](CC(C)C)N(C)C(=O)[C@H](Cc2ccccc2)N(C)C1=O (stereo partly drawn) [Compound 11] (cyclo([Cha][Sar]E(OtBu)[dP][ξP]NGL[NMeF][NMeL])) | > 10 ×10⁻⁶ cm/s | 16.2 ×10⁻⁶ cm/s
4 | CC(C)C[C@@H]1NC(=O)CNC(=O)[C@H](CC(N)=O)NC(=O)C2CCCN2C(=O)[C@H]2CCCN2C(=O)[C@H](CCC(=O)OC(C)(C)C)NC(=O)CN(C)C(=O)[C@H](CCCNC(N)=O)NC(=O)[C@H](CC(C)C)N(C)C(=O)[C@H](Cc2ccccc2)N(C)C1=O (stereo partly drawn) [Compound 12] (cyclo([Cit][Sar]E(OtBu)[dP][ξP]NGL[NMeF][NMeL])) | – | 0.9 ×10⁻⁶ cm/s
